Paper PMC11592675, “Förster Resonance Energy Transfer Measurements in Living Bacteria for Interaction Studies of BamA with BamD and Inhibitor Identification” (Cells, 2024)
Values joined by “and” are separate entries in the source; they are usually repeats but may differ in a detail not shown here. Equal entries are not always repeated. “Also recorded” adds a separate entry of the source.

Columns and labels:
[1] = system: interaction between BamA and BamD; conditions: yeast two hybrid high throughput screening; cited from earlier work
Text: (§1) Resistance against known antibiotics is progressively spreading. Therefore, new antibacterial entities are urgently needed. […] The β-barrel assembly ...

[2] = system: gram-negative bacteria; conditions: in vitro; cited from earlier work
Text: as §1

[3] = system: outer membrane; conditions: cited from earlier work
Text: Resistance against known antibiotics is progressively spreading. Therefore, new antibacterial entities are urgently needed. […] The β-barrel assembly ... || The interaction between BamA and BamD is essential for the correct function of the BAM complex. BamE has been reported to stabilize the interaction between BamA and BamD [29]. In this work, BamE was not overexpressed alongside the fluorophore-labeled BamA and BamD fusion proteins. It is therefore unclear to what extent chromosomal-encoded BamE stabilized the complex between fluorophore-labelled BamA and BamD. It is also possible that the interaction measured between BamA and BamD was not affected by BamE at all, due to the low amount of BamE present in comparison to the plas ...

[4] = system: BamA; conditions: cited from earlier work
Text: Resistance against known antibiotics is progressively spreading. Therefore, new antibacterial entities are urgently needed. According to the WHO, new antibiotics against gram-negative bacteria are in particular need. Common mechanisms of antibiotic resistance in gram-negative bacteria include changes in membrane and cell-wall permeability, biofilm formation, the production of efflux pumps and beta-lactamases, as well as mutation of typical targets. […] The β-barrel assembly ...

[5] = biological target: BamA-mNeonGreen (C-terminal fusion of mNeonGreen to BamA) (E. coli) (UniProt P0A940); assay: FRET or BRET; flow cytometry (three channels) of living E. coli BL21 co-expressing the mNeonGreen (donor) and mScarlet-I (acceptor) fusions from one plasmid; cells washed with PBS; binding model (law of mass action) fitted to DFRET and relative concentrations with Ka app, z and Fmax all as free parameters; apparent; five replicates on each of three days
[6] = biological target: mNeonGreen-BamA (N-terminal fusion of mNeonGreen to BamA) (E. coli) (UniProt P0A940); assay: as above
[7] = system: BamA–BamD interaction; assay: FRET-based determination of apparent affinity of BamA, BamD and their variants / FRET pairs in living E. coli cells; type: cell-based; conditions: BamA-mNeonGreen–BamD-mScarlet-I, n = 5 biological replicates (Figure 3c)
Text: E. coli Stellar (F−, endA1, supE44, thi-1, recA1, relA1, gyrA96, phoA, Φ80d lacZΔ M15, Δ(lacZYA-argF) U169, Δ(mrr-hsdRMS-mcrBC), ΔmcrA, λ−) was used for plasmid construction. E. coli BL21 (B, F^−, gal, dcm, Ion, hsdSB(rB^− mB^−), [malB^+]K-12(λ^S)) was used for expression of all fusion proteins and subsequent flow cytometric analysis. Plasmids were constructed by ligation free cloning using the InFusion™ cloning kit (Clonetech, San Jose, CA, USA) according to the manufacturer’s instructions, based on plasmid backbones described earlier. Details on the determinants and the construction of each of the used plasmids is given in the Supplementary Information (Supplementary Table S1 and Supplementary Text S1). Oligonucleotides used in their constructions are listed in Supplementary Table S2. Single-point mutations were introduced with the InFusion™ cloning kit. Oligonucleotides used are listed in Supplementary Table S2.
(§2) At the start of each experiment, E. coli BL21 cells were transformed with the corresponding plasmids, spread onto lysogeny broth-miller (LB)-agar plates with 50 µg/mL kanamycin (≥750 I.U./mg) or carbenicillin (purity: ≥88%) and grown over night. It turned out to be crucial to use freshly transformed cells for each experiment. Keeping the cells on agar plates for more than two days or cryoconservation of the cells led to an increase in the variability of the determined parameters Ka^app., z and Fmax. The following day, after transformation of the cells, 1 mL of LB medium with 50 µg/mL of the corresponding antibiotic in a 48-well plate was inoculated with a single colony and cultivated overnight (16 h) at 37 °C and 200 rpm. For protein production, M9 mineral medium was used, in which glucose was substituted by 1% (m/m) glycerol (purity: ≥99%) as the carbon source. A quantity of 200 µL of M9 medium in a 96-well plate was inoculated with 2 µL of the overnight culture and cultivated at 28 °C and 200 rpm for 6 h. Then, gene expression was induced with 1 mM L-rhamnose (purity: ≥98%), and afterwards an additional 2 h of cultivation with 0.2% (m/V) arabinose (purity: ≥99%). Cells that carried a plasmid that only contained one promotor were only treated with the corresponding inductor. Following induction of gene expression, cells were cultivated for an additional 16 h at 28 °C and 200 rpm. Cells were subsequently washed with PBS three times and then directly analyzed by flow cytometry.
(§3) A FACS Aria III flow cytometer (BD Bioscience, Franklin Lages, NJ, USA) with a 70 microns nozzle was used to analyze all cells. A three-channel method was used to measure the donor channel (mNeonGreeen), the acceptor channel (mScarlet-I) and the FRET channel. To measure the mNeonGreen fluorescence, an excitation wavelength of 488 nm and emission wavelength filters of 530/30 nm (band-pass) and 502 nm (long-pass) were used. mScarlet-I fluorescence was excited at 561 nm and measured with emission wavelength filters of 610/20 nm (band-pass) and 600 nm (long-pass). The FRET channel was measured with an excitation wavelength of 488 nm and emission filters of 610/20 nm (band-pass) and 600 nm (long-pass). A maximum of 10,000 cells per second were analyzed. FACSDiva™ Software (BD Bioscience, Franklin Lages, NJ, USA, version 8.0) was used for gating data analysis. For cells only expressing one fluorophore, 50,000 cells per sample were analyzed. […] A total of 50,000 cells inside the Q2 gate were analyzed. Examples are shown in Supplementary Figure S2. Cells at the edge of the plot were excluded during calculation of DFRET values and relative donor/acceptor concentrations.
Data points of all cells inside the analysis gate (Q2), as described in 2.4, were exported as FCS files using FACSDiva™ Software (BD Bioscience, Franklin Lages, NJ, USA, version 8.0). A custom Python program employing the FlowKit was subsequently used to convert the FCS formatted data into tab-delimited txt format. […]

[8] = system: Pseudomonas aeruginosa; conditions: cited from earlier work
Text: Mori et al. identified a peptide sequence (FIRL) that was highly conserved across BamD homologues in a wide variety of gram-negative bacteria. […] When the peptide was identified by Mori et al., no crystal structure of the BAM complex was available. When we located the amino acids of the FIRL peptide in the crystal structure of BamD, it turned out that only two of the four amino acids, R97 and L98, appeared to interact with BamA at site 2 (Figure 3c). The sidec ... || The interaction between BamA and BamD is essential for the correct function of the BAM complex. BamE has been reported to stabilize the interaction between BamA and BamD [29]. In this work, BamE was not overexpressed alongside the fluorophore-labeled BamA and BamD fusion proteins. It is therefore unclear to what extent chromosomal-encoded BamE stabilized the complex between fluorophore-labelled BamA and BamD. It is also possible that the interaction measured between BamA and BamD was not affected by BamE at all, due to the low amount of BamE present in comparison to the plas ...

[9] = system: interaction between BamA and BamD (BamA-mNeonGreen and BamD-mScarlet-I); assay: FRET-based BamA–BamD interaction assay in living E. coli cells (flow cytometry), peptide treatment; type: cell-based; conditions: for Ka^app. of the BamA–BamD interaction after peptide treatment: cells incubated 3 h in water, z and Fmax kept constant, n = 5 biological replicates, untreated control in the RFIRLN experiment Ka^app. = 3.08 × 10^−4; for inhibition of the interaction between BamA and BamD (in words): living bacterial cells, 500 µM and 2.5 mM peptide, 3 h in water
Method: as §2, §3
Data points of all cells inside the analysis gate (Q2), as described in 2.4, were exported as FCS files using FACSDiva™ Software (BD Bioscience, Franklin Lages, NJ, USA, version 8.0). A custom Python program employing the FlowKit was subsequently used to convert the FCS formatted data into tab-delimited txt format.
Calculation of the DFRET and calculation of the relative concentration of the acceptor and donor from the flow cytometric data were performed as described by Hochreiter et al.. Cells with an RFU ≥ 250,000 were excluded from further analysis. Fitting of a binding model based on the law of mass actions to the data was also performed as described by Hochreiter et al.. The binding model used here (Equation (1)) fits the affinity (Ka^app), the stoichiometry (z) and the maximum FRET (Fmax) of a complex. To do so, the relative donor and acceptor concentration, as well as the DFRET, of a large number of cells with different expression levels has to be known. All other equations used for the calculations are described in Supplementary Text S1 for clarity. The FRET-efficiency of the donor- acceptor tandem, needed for the calculations, was determined by spectral unmixing according to Alexeeva et al. to be 0.43 [42]. […]

[10] = system: bacterial growth; assay: inhibition of bacterial growth by the peptides; type: cell-based, E. coli; conditions: up to a concentration of 2.5 mM
[11] = M9 medium or PBS; not soluble at concentrations above 1 mM
Method: Peptides (RFIRLN and […]) were synthesized by Genicbio with a purity of >95%. For treatment with the peptides, cells were grown as described above. […] Cells not treated with the peptide were also incubated in water for 3 h and used as a control for all experiments involving the peptides.

[12] = system: clinical isolates; conditions: several clinical isolates; cited from earlier work
Text: as §1

[13] = interaction site 1 variants, z and Fmax constant
[14] = interaction site 2 variants, z = 1, Fmax = 0.36 constant

COC(=O)c1c(NC(=O)c2ccc([N+](=O)[O-])o2)sc2c1CCN(C(C)C)C2 [IMB-H4]
inhibition of the interaction between BamA and BamD [1]: shown to inhibit the interaction between BamA and BamD | antibacterial activity [2]: showed antibacterial activity in vitro | permeabilization of the OM [3]: shown to permeabilize the OM | binding to BamA ([4]; no specific interaction site known): binds to BamA

BamD-mScarlet-I (C-terminal fusion of mScarlet-I to BamD) (from UniProt P0AC02 20-245) (natural protein)
stoichiometry N [5]: 1.3 and 1.6 and 1.2 | stoichiometry N [6]: 0.7 and 1.1

BamD^E187A: BamD variant
Ka^app. [7, 13]: 7.82 × 10^−5

BamD^L98A: BamD variant
Ka^app. [7, 14]: 6.58 × 10^−5

BamD^N99A: BamD variant
Ka^app. [7, 14]: 6.57 × 10^−5

BamD^R94A: BamD variant
Ka^app. [7, 14]: 5.47 × 10^−5

BamD^R97A: BamD variant
Ka^app. [7, 14]: 6.23 × 10^−5

BamD^Y184A: BamD variant
Ka^app. [7, 13]: 5.27 × 10^−5

BamD^Y184F: BamD variant
Ka^app. [7, 13]: 6.22 × 10^−5

BamD^Y185A: BamD variant, Y185 mutated to alanine
Ka^app. [7, 13]: 6.22 × 10^−5

E183A: BamD variant
Ka^app. [7, 13]: 7.2 × 10^−5

FIRL [peptide derived from BamD, Mori et al]
effect on outer membrane integrity / membrane permeability [3]: cause membrane permeability in treated cells; also recorded: shown to interfere with outer membrane integrity | bacteriostatic or bactericidal effects [8]: did not show any bacteriostatic or bactericidal effects | potentiation of antibiotics [8]: potentiated the effect of antibiotics; also recorded: potentiate the activity of antibiotics

RFIRLN
Ka^app. of the BamA–BamD interaction after peptide treatment ([9]; 500 µM peptide): 1.95 × 10^−4 | Ka^app. of the BamA–BamD interaction after peptide treatment ([9]; 2.5 mM peptide): 7.48 × 10^−5 | inhibition of the interaction between BamA and BamD (in words) [9]: inhibit the interaction between BamA and BamD in a dose-dependent manner in the upper micromolar range; also recorded: a clear dose-dependent effect was observed; also recorded: shown to inhibit binding of BamA to BamD in living cells | inhibition of bacterial growth [10]: no inhibition of bacterial growth was detected up to a concentration of 2.5 mM | solubility [11]: ≤ 1000 µM

V181A: BamD variant
Ka^app. [7, 13]: 6.66 × 10^−5

VAEYYTER
Ka^app. of the BamA–BamD interaction after peptide treatment ([9]; 500 µM peptide): 1.75 × 10^−4 | Ka^app. of the BamA–BamD interaction after peptide treatment ([9]; 2.5 mM peptide): 1.03 × 10^−4 | inhibition of the interaction between BamA and BamD (in words) [9]: inhibit the interaction between BamA and BamD in a dose-dependent manner in the upper micromolar range; also recorded: a clear dose-dependent effect was observed; also recorded: able to disrupt the binding of BamD to BamA in living cells in high micromolar concentrations | inhibition of bacterial growth [10]: no inhibition of bacterial growth was detected up to a concentration of 2.5 mM

darobactin
antimicrobial activity [12]: antimicrobial activity against several clinical isolates | effect on insertion of BamA client proteins into the outer membrane [4]: prevents the insertion of BamA client proteins into the outer membrane
